{"source": "ChEMBL document CHEMBL3877302", "about": "“Design and Synthesis of a New Series of 4-Heteroarylamino-1'-azaspiro[oxazole-5,3'-bicyclo[2.2.2]octanes as α7 Nicotinic Receptor Agonists. 1. Development of Pharmacophore and Early Structure-Activity Relationship” (J Med Chem, 2016)", "key": {"[1]": {"experiment": "Metabolic stability in human microsomes assessed as compound remaining measured after 10 mins", "type": "ADME, Microsome", "settings": "read-out: Stability"}, "[2]": {"experiment": "Metabolic stability in mouse microsomes assessed as compound remaining measured after 10 mins", "type": "ADME, Microsome", "settings": "read-out: Stability"}, "[3]": {"experiment": "Metabolic stability in rat microsomes assessed as compound remaining measured after 10 mins", "type": "ADME, Microsome", "settings": "read-out: Stability"}, "[4]": {"target": "Nicotinic acetylcholine receptor alpha-1/beta-1/delta/epsilon (Rattus norvegicus, UniProt P09660+P25108+P25109+P25110)", "sequence (P25109 whole entry)": "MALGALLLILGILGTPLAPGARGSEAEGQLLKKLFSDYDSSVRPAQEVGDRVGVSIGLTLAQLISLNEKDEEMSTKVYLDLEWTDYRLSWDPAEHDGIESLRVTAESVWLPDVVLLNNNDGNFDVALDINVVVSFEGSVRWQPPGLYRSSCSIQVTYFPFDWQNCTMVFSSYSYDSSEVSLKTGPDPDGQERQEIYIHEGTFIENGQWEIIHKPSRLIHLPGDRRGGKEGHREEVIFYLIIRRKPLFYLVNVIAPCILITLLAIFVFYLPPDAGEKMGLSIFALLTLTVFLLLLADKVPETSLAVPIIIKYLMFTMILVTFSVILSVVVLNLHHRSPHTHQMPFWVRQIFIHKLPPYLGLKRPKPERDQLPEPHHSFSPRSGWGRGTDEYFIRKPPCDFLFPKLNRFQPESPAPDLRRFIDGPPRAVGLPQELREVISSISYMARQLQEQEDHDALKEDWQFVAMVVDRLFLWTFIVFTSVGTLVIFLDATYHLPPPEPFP", "sequence (P25108 whole entry)": "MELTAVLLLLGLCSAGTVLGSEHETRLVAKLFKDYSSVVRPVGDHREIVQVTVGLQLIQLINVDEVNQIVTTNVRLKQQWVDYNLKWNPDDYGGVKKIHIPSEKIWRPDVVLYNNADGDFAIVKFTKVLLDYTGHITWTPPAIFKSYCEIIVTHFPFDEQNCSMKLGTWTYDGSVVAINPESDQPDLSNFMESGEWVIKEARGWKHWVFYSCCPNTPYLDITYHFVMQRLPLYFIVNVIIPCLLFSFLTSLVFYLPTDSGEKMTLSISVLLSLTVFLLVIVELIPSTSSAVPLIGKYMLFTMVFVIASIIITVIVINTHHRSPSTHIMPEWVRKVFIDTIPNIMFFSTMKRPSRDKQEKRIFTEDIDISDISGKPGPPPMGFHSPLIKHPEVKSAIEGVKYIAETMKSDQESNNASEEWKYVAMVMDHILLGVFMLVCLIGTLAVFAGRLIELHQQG", "sequence (P25110 whole entry)": "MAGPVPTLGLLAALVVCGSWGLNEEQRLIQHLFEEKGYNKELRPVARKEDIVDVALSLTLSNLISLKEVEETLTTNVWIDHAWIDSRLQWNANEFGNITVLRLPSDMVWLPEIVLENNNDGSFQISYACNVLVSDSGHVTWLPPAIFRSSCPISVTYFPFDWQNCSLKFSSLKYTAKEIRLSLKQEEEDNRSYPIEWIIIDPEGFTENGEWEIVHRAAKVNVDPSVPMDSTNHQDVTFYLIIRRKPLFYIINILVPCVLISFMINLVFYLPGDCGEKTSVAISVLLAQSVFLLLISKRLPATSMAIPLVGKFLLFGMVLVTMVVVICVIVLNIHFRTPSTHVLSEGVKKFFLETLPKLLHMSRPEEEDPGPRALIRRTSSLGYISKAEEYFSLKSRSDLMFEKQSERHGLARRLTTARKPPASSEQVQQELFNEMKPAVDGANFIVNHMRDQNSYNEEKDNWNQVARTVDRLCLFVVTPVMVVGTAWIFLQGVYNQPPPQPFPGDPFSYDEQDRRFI", "sequence (P09660 whole entry)": "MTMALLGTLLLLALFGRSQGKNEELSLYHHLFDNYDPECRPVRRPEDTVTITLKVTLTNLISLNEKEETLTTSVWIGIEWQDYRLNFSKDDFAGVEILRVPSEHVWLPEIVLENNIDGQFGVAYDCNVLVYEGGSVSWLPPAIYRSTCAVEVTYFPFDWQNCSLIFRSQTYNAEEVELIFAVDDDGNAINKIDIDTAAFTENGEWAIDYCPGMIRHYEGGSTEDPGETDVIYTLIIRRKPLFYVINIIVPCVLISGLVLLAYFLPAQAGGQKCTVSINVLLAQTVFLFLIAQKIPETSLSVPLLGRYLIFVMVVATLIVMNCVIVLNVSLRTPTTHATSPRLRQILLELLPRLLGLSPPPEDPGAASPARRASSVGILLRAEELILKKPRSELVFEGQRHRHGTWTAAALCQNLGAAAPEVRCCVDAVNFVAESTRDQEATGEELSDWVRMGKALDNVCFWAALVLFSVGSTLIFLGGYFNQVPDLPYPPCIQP", "experiment": "Agonist activity at rat alpha1beta1deltaepsilon nAChR expressed in HEK293 cells for 2 mins by FLIPR assay", "type": "cell-based"}, "[5]": {"target": "Neuronal acetylcholine receptor; alpha3/beta4 (Rattus norvegicus, UniProt P04757+P12392)", "sequence (P04757 whole entry)": "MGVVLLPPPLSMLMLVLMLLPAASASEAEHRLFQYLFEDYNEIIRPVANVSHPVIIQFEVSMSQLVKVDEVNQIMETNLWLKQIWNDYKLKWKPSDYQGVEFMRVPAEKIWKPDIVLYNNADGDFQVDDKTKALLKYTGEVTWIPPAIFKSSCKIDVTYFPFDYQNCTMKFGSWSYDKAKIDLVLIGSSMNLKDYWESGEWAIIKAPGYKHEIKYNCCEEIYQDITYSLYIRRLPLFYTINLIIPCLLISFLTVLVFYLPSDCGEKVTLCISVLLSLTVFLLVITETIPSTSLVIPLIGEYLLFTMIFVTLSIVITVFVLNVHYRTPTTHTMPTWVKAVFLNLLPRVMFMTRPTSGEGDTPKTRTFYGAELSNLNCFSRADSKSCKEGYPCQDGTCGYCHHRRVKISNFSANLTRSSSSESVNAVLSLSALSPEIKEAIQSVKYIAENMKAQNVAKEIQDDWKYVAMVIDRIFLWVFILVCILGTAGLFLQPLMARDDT", "sequence (P12392 whole entry)": "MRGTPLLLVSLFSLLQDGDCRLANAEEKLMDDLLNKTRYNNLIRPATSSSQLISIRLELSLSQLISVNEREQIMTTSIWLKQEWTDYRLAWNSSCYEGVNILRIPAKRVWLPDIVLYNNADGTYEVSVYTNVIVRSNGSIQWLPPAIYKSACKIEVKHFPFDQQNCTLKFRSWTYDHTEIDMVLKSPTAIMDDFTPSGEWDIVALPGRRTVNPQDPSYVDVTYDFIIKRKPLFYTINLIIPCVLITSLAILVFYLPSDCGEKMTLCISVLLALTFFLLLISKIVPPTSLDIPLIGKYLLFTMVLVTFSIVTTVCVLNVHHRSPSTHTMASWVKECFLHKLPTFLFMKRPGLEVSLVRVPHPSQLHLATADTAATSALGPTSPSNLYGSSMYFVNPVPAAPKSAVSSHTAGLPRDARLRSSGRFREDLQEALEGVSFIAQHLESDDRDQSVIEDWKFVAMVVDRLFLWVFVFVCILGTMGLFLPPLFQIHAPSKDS", "experiment": "Agonist activity at rat alpha3beta4 nAChR expressed in HEK293 cells for 2 mins by FLIPR assay", "type": "cell-based"}, "[6]": {"target": "Neuronal acetylcholine receptor; alpha4/beta2 (Rattus norvegicus, UniProt P09483+P12390)", "sequence (P09483 whole entry)": "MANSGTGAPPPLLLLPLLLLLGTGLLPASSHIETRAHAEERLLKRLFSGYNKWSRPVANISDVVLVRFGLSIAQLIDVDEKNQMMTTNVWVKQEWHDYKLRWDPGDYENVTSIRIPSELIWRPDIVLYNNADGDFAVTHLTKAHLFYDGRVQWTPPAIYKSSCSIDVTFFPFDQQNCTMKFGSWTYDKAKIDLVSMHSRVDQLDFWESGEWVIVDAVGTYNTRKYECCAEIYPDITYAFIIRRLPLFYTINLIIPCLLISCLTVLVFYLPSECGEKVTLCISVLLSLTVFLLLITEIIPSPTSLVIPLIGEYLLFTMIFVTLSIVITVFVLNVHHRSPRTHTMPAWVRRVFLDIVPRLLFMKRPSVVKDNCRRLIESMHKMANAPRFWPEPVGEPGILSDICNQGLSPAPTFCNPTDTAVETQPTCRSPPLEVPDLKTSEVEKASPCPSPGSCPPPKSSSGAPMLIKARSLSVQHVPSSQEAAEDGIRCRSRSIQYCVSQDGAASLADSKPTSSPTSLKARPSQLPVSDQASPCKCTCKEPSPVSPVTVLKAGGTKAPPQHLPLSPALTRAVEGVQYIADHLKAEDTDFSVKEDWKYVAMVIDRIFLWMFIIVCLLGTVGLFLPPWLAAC", "sequence (P12390 whole entry)": "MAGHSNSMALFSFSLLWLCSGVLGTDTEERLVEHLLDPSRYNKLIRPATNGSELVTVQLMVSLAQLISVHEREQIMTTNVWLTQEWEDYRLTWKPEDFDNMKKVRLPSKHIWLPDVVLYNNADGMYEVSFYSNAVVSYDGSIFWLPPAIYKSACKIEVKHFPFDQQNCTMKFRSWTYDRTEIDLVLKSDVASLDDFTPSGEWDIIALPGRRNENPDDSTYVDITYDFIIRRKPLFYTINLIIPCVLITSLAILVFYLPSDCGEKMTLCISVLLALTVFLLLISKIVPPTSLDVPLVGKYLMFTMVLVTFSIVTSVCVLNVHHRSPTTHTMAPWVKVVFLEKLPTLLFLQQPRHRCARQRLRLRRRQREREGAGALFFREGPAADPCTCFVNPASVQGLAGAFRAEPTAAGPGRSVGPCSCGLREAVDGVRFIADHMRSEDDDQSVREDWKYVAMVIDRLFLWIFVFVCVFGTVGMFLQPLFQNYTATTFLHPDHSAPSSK", "experiment": "Agonist activity at rat alpha4beta2 nAChR expressed in HEK293 cells for 2 mins by FLIPR assay", "type": "cell-based"}, "[7]": {"target": "T1, Cytochrome P450 3A4 (Homo sapiens, UniProt P08684)", "T1 sequence (P08684 whole entry)": "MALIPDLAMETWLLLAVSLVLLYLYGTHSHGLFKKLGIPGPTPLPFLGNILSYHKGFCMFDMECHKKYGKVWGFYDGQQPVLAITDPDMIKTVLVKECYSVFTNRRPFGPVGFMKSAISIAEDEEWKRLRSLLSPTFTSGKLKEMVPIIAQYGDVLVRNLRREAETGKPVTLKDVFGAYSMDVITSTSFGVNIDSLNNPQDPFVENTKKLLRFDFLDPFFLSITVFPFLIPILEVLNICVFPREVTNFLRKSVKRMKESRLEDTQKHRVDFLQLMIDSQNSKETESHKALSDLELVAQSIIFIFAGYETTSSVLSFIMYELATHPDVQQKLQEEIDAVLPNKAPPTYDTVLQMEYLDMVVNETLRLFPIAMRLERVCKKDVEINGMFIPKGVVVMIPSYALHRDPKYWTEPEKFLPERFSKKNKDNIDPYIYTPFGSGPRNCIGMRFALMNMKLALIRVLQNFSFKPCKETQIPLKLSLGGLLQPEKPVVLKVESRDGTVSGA", "experiment": "Inhibition of human CYP3A4 using BFC as substrate", "type": "ADME"}, "[8]": {"target": "T1, Cytochrome P450 3A4", "experiment": "Inhibition of human CYP3A4 using BZR as substrate", "type": "ADME"}, "[9]": {"target": "T2, Cytochrome P450 1A2 (Homo sapiens, UniProt P05177)", "T2 sequence (P05177 whole entry)": "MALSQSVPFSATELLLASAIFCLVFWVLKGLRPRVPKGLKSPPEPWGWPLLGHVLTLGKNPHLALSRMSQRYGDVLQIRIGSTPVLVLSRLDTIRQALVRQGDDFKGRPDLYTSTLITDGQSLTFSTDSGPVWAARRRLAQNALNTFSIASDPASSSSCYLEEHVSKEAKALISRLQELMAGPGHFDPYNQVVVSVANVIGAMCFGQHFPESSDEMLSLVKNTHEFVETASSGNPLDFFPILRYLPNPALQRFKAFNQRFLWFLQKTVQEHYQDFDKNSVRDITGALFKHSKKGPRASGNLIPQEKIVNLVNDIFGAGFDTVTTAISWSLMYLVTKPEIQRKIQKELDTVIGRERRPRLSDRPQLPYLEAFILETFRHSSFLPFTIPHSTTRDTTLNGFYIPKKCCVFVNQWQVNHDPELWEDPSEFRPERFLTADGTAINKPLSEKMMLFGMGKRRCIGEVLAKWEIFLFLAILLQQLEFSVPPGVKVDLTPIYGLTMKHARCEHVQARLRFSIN", "experiment": "Inhibition of human CYP1A2", "type": "ADME"}, "[10]": {"target": "T3, Cytochrome P450 2B6 (Homo sapiens, UniProt P20813)", "T3 sequence (P20813 whole entry)": "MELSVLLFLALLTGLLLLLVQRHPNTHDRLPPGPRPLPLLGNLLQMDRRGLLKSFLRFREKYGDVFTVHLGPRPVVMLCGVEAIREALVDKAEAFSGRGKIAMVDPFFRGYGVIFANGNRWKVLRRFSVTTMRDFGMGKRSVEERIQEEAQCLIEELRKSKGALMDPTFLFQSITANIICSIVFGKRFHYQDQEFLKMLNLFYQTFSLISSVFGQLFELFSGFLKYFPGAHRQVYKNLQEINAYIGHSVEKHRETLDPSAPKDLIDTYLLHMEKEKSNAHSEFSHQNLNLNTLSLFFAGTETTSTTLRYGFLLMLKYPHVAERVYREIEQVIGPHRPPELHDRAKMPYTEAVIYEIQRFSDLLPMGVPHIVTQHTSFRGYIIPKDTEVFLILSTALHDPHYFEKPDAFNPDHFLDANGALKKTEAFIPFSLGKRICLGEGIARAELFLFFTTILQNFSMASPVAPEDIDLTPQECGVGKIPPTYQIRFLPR", "experiment": "Inhibition of human CYP2B6", "type": "ADME"}, "[11]": {"target": "T4, Cytochrome P450 2C8 (Homo sapiens, UniProt P10632)", "T4 sequence (P10632 whole entry)": "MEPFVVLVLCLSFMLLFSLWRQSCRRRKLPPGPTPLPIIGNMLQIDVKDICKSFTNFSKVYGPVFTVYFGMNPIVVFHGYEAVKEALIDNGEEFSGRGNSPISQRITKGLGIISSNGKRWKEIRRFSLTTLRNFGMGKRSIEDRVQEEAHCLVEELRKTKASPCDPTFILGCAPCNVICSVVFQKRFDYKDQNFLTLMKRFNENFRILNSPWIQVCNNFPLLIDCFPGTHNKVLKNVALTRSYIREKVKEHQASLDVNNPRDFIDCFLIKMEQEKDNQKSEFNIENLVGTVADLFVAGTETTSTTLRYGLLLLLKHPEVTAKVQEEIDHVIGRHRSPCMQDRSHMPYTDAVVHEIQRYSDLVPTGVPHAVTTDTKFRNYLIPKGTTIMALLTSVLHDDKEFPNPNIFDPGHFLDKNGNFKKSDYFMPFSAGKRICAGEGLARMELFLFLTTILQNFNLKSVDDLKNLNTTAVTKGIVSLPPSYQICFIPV", "experiment": "Inhibition of human CYP2C8", "type": "ADME"}, "[12]": {"target": "Cytochrome P450 2C9 (Homo sapiens, UniProt P11712)", "experiment": "Inhibition of human CYP2C9", "type": "ADME"}, "[13]": {"target": "Cytochrome P450 2C19 (Homo sapiens, UniProt P33261)", "experiment": "Inhibition of human CYP2C19", "type": "ADME"}, "[14]": {"target": "Cytochrome P450 2D6 (Homo sapiens, UniProt P10635)", "experiment": "Inhibition of human CYP2D6", "type": "ADME"}, "[15]": {"experiment": "Fraction unbound in human plasma", "type": "ADME, cell-free"}, "[16]": {"experiment": "Fraction unbound in rat plasma", "type": "ADME, cell-free"}, "[17]": {"experiment": "Fraction unbound in mouse plasma", "type": "ADME, cell-free"}, "[18]": {"tested_on": "Mus musculus", "experiment": "Cognitive enhancing effect in C57Bl/6 mouse at 0.1 to 1 mg/kg, sc administered 30 mins prior to training measured after 24 hrs by novel recognition assay", "type": "functional, organism-based"}, "[19]": {"tested_on": "Mus musculus", "experiment": "Cognitive enhancing effect in C57Bl/6 mouse administered subcutaneously for 30 mins prior to training measured after 24 hrs by novel recognition assay", "type": "functional", "settings": "C57Bl/6, sc, read-out: MED"}, "[20]": {"tested_on": "Mus musculus", "experiment": "Cognitive enhancing effect in C57Bl/6 mouse at 0.3 mg/kg, sc administered 30 mins to 6 hrs prior to training measured after 24 hrs by novel recognition assay", "type": "functional, organism-based"}, "[21]": {"experiment": "Drug uptake in C57Bl/6 mouse NOR model brain at 0.03 mg/kg, sc measured after 0.5 hrs", "type": "ADME, organism-based", "settings": "read-out: Drug uptake"}, "[22]": {"experiment": "Drug uptake in C57Bl/6 mouse NOR model brain at 0.1 mg/kg, sc measured after 0.5 hrs", "type": "ADME, organism-based", "settings": "read-out: Drug uptake"}, "[23]": {"experiment": "Drug uptake in C57Bl/6 mouse NOR model brain at 0.3 mg/kg, sc measured after 0.5 hrs", "type": "ADME, organism-based", "settings": "read-out: Drug uptake"}, "[24]": {"experiment": "Drug uptake in C57Bl/6 mouse NOR model brain at 1 mg/kg, sc measured after 0.5 hrs", "type": "ADME, organism-based", "settings": "read-out: Drug uptake"}, "[25]": {"experiment": "Drug uptake in C57Bl/6 mouse NOR model brain at 0.3 mg/kg, sc measured after 2 hrs", "type": "ADME, organism-based", "settings": "read-out: Drug uptake"}, "[26]": {"experiment": "Drug uptake in C57Bl/6 mouse NOR model brain at 0.3 mg/kg, sc measured after 6 hrs", "type": "ADME, organism-based", "settings": "read-out: Drug uptake"}, "[27]": {"experiment": "Plasma concentration in C57Bl/6 mouse NOR model at 0.03 mg/kg, sc measured after 0.5 hrs", "type": "ADME, organism-based"}, "[28]": {"experiment": "Plasma concentration in C57Bl/6 mouse NOR model at 0.1 mg/kg, sc measured after 0.5 hrs", "type": "ADME, organism-based"}, "[29]": {"experiment": "Plasma concentration in C57Bl/6 mouse NOR model at 0.3 mg/kg, sc measured after 0.5 hrs", "type": "ADME, organism-based"}, "[30]": {"experiment": "Plasma concentration in C57Bl/6 mouse NOR model at 1 mg/kg, sc measured after 0.5 hrs", "type": "ADME, organism-based"}, "[31]": {"experiment": "Plasma concentration in C57Bl/6 mouse NOR model at 0.3 mg/kg, sc measured after 2 hrs", "type": "ADME, organism-based"}, "[32]": {"experiment": "Plasma concentration in C57Bl/6 mouse NOR model at 0.3 mg/kg, sc measured after 6 hrs", "type": "ADME, organism-based"}, "[33]": {"tested_on": "Mus musculus", "experiment": "Reversal of NMDAR antagonist MK-801-induced memory deficits in C57Bl/6 mouse at 1 and 3 mg/kg, sc administered 30 mins prior to […] challenge measured after 30 mins by Y maze assay", "type": "functional, organism-based"}}, "note": "The source made the active and inactive calls. No cut-off for these calls is given here.", "data": [{"compound": "c1ccc2cc(NC3=NC[C@@]4(CN5CCC4CC5)O3)ncc2c1", "values": [{"measurement": "remaining at 10 min", "setting": "[1]", "value": 96, "unit": "%"}, {"measurement": "remaining at 10 min", "setting": "[2]", "value": 1, "unit": "%"}, {"measurement": "remaining at 10 min", "setting": "[3]", "value": 89, "unit": "%"}, {"measurement": "EC50", "setting": "[4]", "value": "> 100", "unit": "µM"}, {"measurement": "EC50", "setting": "[5]", "value": "> 100", "unit": "µM"}, {"measurement": "EC50", "setting": "[6]", "value": "> 100", "unit": "µM"}, {"measurement": "IC50", "setting": "[7]", "value": "> 40", "unit": "µM"}, {"measurement": "IC50", "setting": "[8]", "value": "> 40", "unit": "µM"}, {"measurement": "IC50", "setting": "[9]", "value": "> 40", "unit": "µM"}, {"measurement": "IC50", "setting": "[10]", "value": "> 40", "unit": "µM"}, {"measurement": "IC50", "setting": "[11]", "value": "> 40", "unit": "µM"}, {"measurement": "IC50", "setting": "[12]", "value": "> 40", "unit": "µM"}, {"measurement": "IC50", "setting": "[13]", "value": "> 40", "unit": "µM"}, {"measurement": "IC50", "setting": "[14]", "value": "> 40", "unit": "µM"}, {"measurement": "fraction unbound", "setting": "[15]", "value": 0.247}, {"measurement": "fraction unbound", "setting": "[16]", "value": 0.269}, {"measurement": "fraction unbound", "setting": "[17]", "value": 0.23}, {"measurement": "Activity", "setting": "[18]", "value": "Active"}, {"measurement": "minimal effective dose", "setting": "[19]", "value": 0.1, "unit": "mg/kg"}, {"measurement": "Activity", "setting": "[20]", "value": "Active"}, {"measurement": "concentration at 0.5 h", "setting": "[21]", "value": 19, "unit": "nM"}, {"measurement": "concentration at 0.5 h", "setting": "[22]", "value": 57, "unit": "nM"}, {"measurement": "concentration at 0.5 h", "setting": "[23]", "value": "155 to 182", "unit": "nM"}, {"measurement": "concentration at 0.5 h", "setting": "[24]", "value": 744, "unit": "nM"}, {"measurement": "concentration at 2 h", "setting": "[25]", "value": 96, "unit": "nM"}, {"measurement": "concentration at 6 h", "setting": "[26]", "value": 18, "unit": "nM"}, {"measurement": "concentration at 0.5 h", "setting": "[27]", "value": 4, "unit": "nM"}, {"measurement": "concentration at 0.5 h", "setting": "[28]", "value": 16, "unit": "nM"}, {"measurement": "concentration at 0.5 h", "setting": "[29]", "value": "43 to 69", "unit": "nM"}, {"measurement": "concentration at 0.5 h", "setting": "[30]", "value": 184, "unit": "nM"}, {"measurement": "concentration at 2 h", "setting": "[31]", "value": 26, "unit": "nM"}, {"measurement": "concentration at 6 h", "setting": "[32]", "value": 9, "unit": "nM"}, {"measurement": "Activity", "setting": "[33]", "value": "Active"}]}]}
